This assay concerns Human CTPS1 versus CTPS2. Kind of assay: RapidFire/MS-based enzyme selectivity assay, human CTPS1 versus CTPS2. To be noted: calculated from RF/MS IC50 values for human CTPS1 and CTPS2. The class given is biochemical. How it is done:
Human CTPS1 versus CTPS2 Selectivity Assessment by RapidFire/MS Analysis.
The enzyme inhibitory activities against each target isoform of interest may be determined for the compounds of the invention using an optimised RapidFire high-throughput mass spectrometry (RF/MS) assay format. RF/MS assays for both human CTPS1 and CTPS2 may be performed in assay buffer consisting of 50 mM HEPES (Merck), 20 mM MgCl2, 5 mM KCl, 1 mM DTT, 0.01% Tween-20, pH to 8.0 accordingly. Human full-length active C-terminal FLAG-His-tag CTPS1 (UniProtKB-P17812, CTPS[1-591]-[…]) may be obtained from Proteros biostructures GmbH. Human full length active C-terminal FLAG-His-Avi tagged CTPS2 (UniProtKB-Q9NRF8, CTPS2 [1-586]-[…]) may be obtained from Harker Bio.
Human CTPS (1 or 2) protein may be prepared in 1× assay buffer to the final working protein concentration required for the reaction. A 2 uL volume per well of 2×CTPS (1 or 2) protein may be mixed with 40 nL of compound using acoustic (ECHO) delivery and incubated for 10 minutes at 25° C. Each isoform enzymatic reaction may be subsequently initiated by addition of 2 uL per well of a 2× substrate mix in assay buffer. For hCTPS1: ATP (0.3 mM), UTP (0.2 mM), GTP (0.07 mM) and L-glutamine (0.1 mM). For hCTPS2: ATP (0.1 mM), UTP (0.04 mM), GTP (0.03 mM) and L-glutamine (0.1 mM). Each mixture may be incubated for an appropriate amount of time per isoform within the determined linear phase of the reaction at 25° C. A 60 uL volume of stop solution (1% formic acid with 0.5 uM ^13C9-^15N3-CTP in H20) may be added and the plate immediately heat-sealed and centrifuged for 10 minutes at 4,000 rpm. Following centrifugation, plates may be loaded onto the Agilent RapidFire microfluidic solid phase extraction system coupled to an API4000 triple quadrupole mass spectrometer (RF/MS) for analysis.
In all cases, the enzyme converts UTP to CTP. Highly specific and sensitive multiple reaction monitoring (MRM) MS methods may be optimised for the detection of the enzymatic reaction product, CTP, and the stable isotope labelled product standard ^13C9-^15N3-CTP. Readout for data analysis may be calculated as the ratio between the peak area of the product CTP and the internal standard ^13C9-^15N3-CTP. For data reporting, the following equation may be used: […]
For each screening plate, the means of the negative (DMSO) and positive control values were used for the calculation of the respective assay window (S/B) and Z′ values. The median of the respective control values was used for calculation of percent inhibition according to the following equation: […]
Percentage inhibition was then plotted against compound concentration, and the 50% inhibitory concentration (IC50) was determined from the resultant concentration-response curve.
Fold selectivity between CTPS1 and CTPS2 was subsequently calculated according to the following equation: […]
On to `CCOc1cncc(-c2ccc(NC(=O)C3(c4cncc(NS(=O)(=O)C5CC5)n4)CCOCC3)nc2)n1` [P197], for which the “Selectivity (fold selectivity between CTPS1 and CTPS2)” value is “+++ (>60 fold (+++))”.

As for `CCOc1cncc(-c2ccc(NC(=O)C(CCOC)c3ccnc(NS(=O)(=O)C4CC4)n3)nc2)n1` (stereo not drawn) [P145, 2-(2-(cyclopropanesulfonamido)pyrimidin-4-yl)-N-(5-(6-ethoxypyrazin-2-yl)pyridin-2-yl)-4-methoxybutanamide], the “Selectivity (fold selectivity between CTPS1 and CTPS2)” value is listed as “+++ (>60 fold (+++))”.

`CCOc1cncc(-c2ccc(NC(=O)C3(c4ccnc(NS(=O)(=O)C5CC5)n4)CCCC3)nc2)n1` [P136, 1-(2-(cyclopropanesulfonamido)pyrimidin-4-yl)-N-(5-(6-ethoxypyrazin-2-yl)pyridin-2-yl)cyclopentane-1-carboxamide]: the “Selectivity (fold selectivity between CTPS1 and CTPS2)” value was “+++ (>60 fold (+++))”.

Turning to `CCOc1cncc(-c2ccc(NC(=O)C3(c4ccnc(NS(=O)(=O)C5CC5)n4)CCOCC3)nc2)n1` [P115, 4-(2-(Cyclopropanesulfonamido)pyrimidin-4-yl)-N-(5-(6-ethoxypyrazin-2-yl)pyridin-2-yl)tetrahydro-2H-pyran-4-carboxamide], the “Selectivity (fold selectivity between CTPS1 and CTPS2)” value is given as “+++ (>60 fold (+++))”.

For `CCOc1cncc(-c2ccc(NC(=O)C(F)(CC)c3cncc(NS(=O)(=O)C4CC4)n3)nc2)n1` (single isomer, unassigned) [P206, 2-(6-(cyclopropanesulfonamido)pyrazin-2-yl)-N-(5-(6-ethoxypyrazin-2-yl)pyridin-2-yl)-2-fluorobutanamide], the “Selectivity (fold selectivity between CTPS1 and CTPS2)” value was “+++ (>60 fold (+++))”.

Regarding `CCOc1cncc(-c2ccc(NC(=O)C(F)(CC)c3ccnc(NS(=O)(=O)C4CC4)n3)nc2)n1` (single isomer, unassigned) [P114, 2-(2-(Cyclopropanesulfonamido)pyrimidin-4-yl)-N-(5-(6-ethoxypyrazin-2-yl)pyridin-2-yl)-2-fluorobutanamide], the “Selectivity (fold selectivity between CTPS1 and CTPS2)” value is reported as “+++ (>60 fold (+++))”.

For the molecule `CCOc1cncc(-c2ccc(NC(=O)C(F)(CC)c3cncc(NS(=O)(=O)C4CC4)n3)nc2)n1` (single isomer, unassigned) [P207, 2-(6-(cyclopropanesulfonamido)pyrazin-2-yl)-N-(5-(6-ethoxypyrazin-2-yl)pyridin-2-yl)-2-fluorobutanamide], the “Selectivity (fold selectivity between CTPS1 and CTPS2)” value is recorded as “+ (2-30 fold (+))”.

In the case of `CCOc1cncc(-c2ccc(NC(=O)C(F)(CC)c3ccnc(NS(=O)(=O)C4CC4)n3)nc2)n1` (single isomer, unassigned) [P113, 2-(2-(Cyclopropanesulfonamido)pyrimidin-4-yl)-N-(5-(6-ethoxypyrazin-2-yl)pyridin-2-yl)-2-fluorobutanamide], the “Selectivity (fold selectivity between CTPS1 and CTPS2)” value is recorded as “+ (2-30 fold (+))”.

As to `CCOc1cncc(-c2ccc(NC(=O)C3(c4ccnc(NS(=O)(=O)C5CC5)n4)CCOCC3)c(F)c2)n1` [P143, 4-(2-(cyclopropanesulfonamido)pyrimidin-4-yl)-N-(4-(6-ethoxypyrazin-2-yl)2-fluorophenyl)tetrahydro-2H-pyran-4-carboxamide], the “Selectivity (fold selectivity between CTPS1 and CTPS2)” value is recorded as “+++ (>60 fold (+++))”.
